{
  "source": "patent US20250032460A1",
  "about": "“METHODS OF TREATING NEUROLOGICAL DISORDERS” (MapLight Therapeutics, Inc., priority 2021, published 2025)",
  "key": {"[1]": {"test": "Post-procedure plasma exposure (salivation study)", "type": "in vivo, Sprague Dawley rats", "experimental": "An in vivo primary pharmacology study evaluating the fesoterodine fumarate dose-response antagonistic effect on Compound 1 induced salivation in anaesthetized male Sprague Dawley rats was conducted. […] Intravenous fesoterodine doses were administered at […]. Fesoterodine was dosed 10 minutes prior to dosage of Compound 1. All animals were normal with no observed abnormality detected in clinical signs or behavior. Salivation was measured by using oral dry swab in anesthetized rats with the calculated difference between the dry swab weight and the wet swab weight indicating the weight of saliva produced. Samples were collected post-dosing for one hour at 10-minute intervals.\nAt the end of the study period, plasma samples were collected to measure exposure of Compound 1, fesoterodine fumarate, and fesoterodine active metabolite 5-hydroxymethyl tolterodine (5-HMT), also referred to as desfesoterodine, is summarized in Table 2."}, "[2]": {"test": "Plasma concentrations during 7-day oral dosing in beagle dogs", "type": "in vivo"}, "[3]": {"settings": "Group 2: fesoterodine fumarate 3 mg/kg/day PO alone, Day 1, 0.25 h"}, "[4]": {"settings": "Group 2: fesoterodine fumarate 3 mg/kg/day PO alone, Day 1, 0.5 h"}, "[5]": {"settings": "Group 2: fesoterodine fumarate 3 mg/kg/day PO alone, Day 1, 1 h"}, "[6]": {"settings": "Group 2: fesoterodine fumarate 3 mg/kg/day PO alone, Day 1, 2 h"}, "[7]": {"settings": "Group 2: fesoterodine fumarate 3 mg/kg/day PO alone, Day 1, 4 h"}, "[8]": {"settings": "Group 2: fesoterodine fumarate 3 mg/kg/day PO alone, Day 1, 8 h"}, "[9]": {"settings": "Group 2: fesoterodine fumarate 3 mg/kg/day PO alone, Day 7, 0.25 h"}, "[10]": {"settings": "Group 2: fesoterodine fumarate 3 mg/kg/day PO alone, Day 7, 0.5 h"}, "[11]": {"settings": "Group 2: fesoterodine fumarate 3 mg/kg/day PO alone, Day 7, 1 h"}, "[12]": {"settings": "Group 2: fesoterodine fumarate 3 mg/kg/day PO alone, Day 7, 2 h"}, "[13]": {"settings": "Group 2: fesoterodine fumarate 3 mg/kg/day PO alone, Day 7, 4 h"}, "[14]": {"settings": "Group 2: fesoterodine fumarate 3 mg/kg/day PO alone, Day 7, 8 h"}, "[15]": {"settings": "Group 3: Compound 1 1.5 mg/kg/day PO + fesoterodine fumarate 3 mg/kg/day PO, Day 1, 0.250 h"}},
  "note": "“And” between values parts separate entries of the source, which are not always exact repeats. Identical values can stand only once.",
  "data": [
    {"molecule": "CC(C)N(CCC(c1ccccc1)c1cc(CO)ccc1O)C(C)C", "note": "(stereo not shown) [desfesoterodine, 5-hydroxymethyl tolterodine]", "values": [
      {"measurement": "Plasma Concentration 1-Hour Post-procedure (mean value), Desfesoterodine (5-HMT)", "setting": "[1]; Fesoterodine 0.0078 mg/mL + Compound 1 (1.5 mg/kg)", "result": "BLQ"},
      {"measurement": "Plasma Concentration 1-Hour Post-procedure (mean value), Desfesoterodine (5-HMT)", "setting": "[1]; Fesoterodine 0.0156 mg/mL + Compound 1 (1.5 mg/kg)", "result": "BLQ"},
      {"measurement": "Plasma Concentration 1-Hour Post-procedure (mean value), Desfesoterodine (5-HMT)", "setting": "[1]; Fesoterodine 0.0312 mg/mL + Compound 1 (1.5 mg/kg)", "result": "BLQ"},
      {"measurement": "Plasma Concentration 1-Hour Post-procedure (mean value), Desfesoterodine (5-HMT)", "setting": "[1]; Fesoterodine 0.0625 mg/mL + Compound 1 (1.5 mg/kg)", "result": "BLQ"},
      {"measurement": "Plasma Concentration 1-Hour Post-procedure (mean value), Desfesoterodine (5-HMT)", "setting": "[1]; Fesoterodine 0.125 mg/mL + Compound 1 (1.5 mg/kg)", "result": "BLQ"},
      {"measurement": "Plasma Concentration 1-Hour Post-procedure (mean value), Desfesoterodine (5-HMT)", "setting": "[1]; Fesoterodine 0.25mg/mL + Compound 1 (1.5 mg/kg)", "result": 5.15, "unit": "ng/mL"},
      {"measurement": "Plasma Concentration 1-Hour Post-procedure (mean value), Desfesoterodine (5-HMT)", "setting": "[1]; Fesoterodine 0.5 mg/mL + Compound 1 (1.5 mg/kg)", "result": 6.19, "unit": "ng/mL"},
      {"measurement": "Plasma concentration of desfesoterodine, Mean", "setting": "[2]; [3]", "result": 87.775, "unit": "ng/mL"},
      {"measurement": "Plasma concentration of desfesoterodine, individual animals D2001-D2005", "setting": "[2]; [3]", "result": "34.2 ng/ml and 267 ng/ml and 14 ng/ml and BQL and 35.9 ng/ml"},
      {"measurement": "Plasma concentration of desfesoterodine, Mean", "setting": "[2]; [4]", "result": 75.32, "unit": "ng/mL"},
      {"measurement": "Plasma concentration of desfesoterodine, individual animals D2001-D2005", "setting": "[2]; [4]", "result": "68.4 ng/mL and 176 ng/mL and 75.3 ng/mL and 23.2 ng/mL and 33.7 ng/mL"},
      {"measurement": "Plasma concentration of desfesoterodine, Mean", "setting": "[2]; [5]", "result": 53.38, "unit": "ng/mL"},
      {"measurement": "Plasma concentration of desfesoterodine, individual animals D2001-D2005", "setting": "[2]; [5]", "result": "31.9 ng/mL and 104 ng/mL and 49.5 ng/mL and 67.6 ng/mL and 13.9 ng/mL"},
      {"measurement": "Plasma concentration of desfesoterodine, Mean", "setting": "[2]; [6]", "result": 25.296, "unit": "ng/mL"},
      {"measurement": "Plasma concentration of desfesoterodine, individual animals D2001-D2005", "setting": "[2]; [6]", "result": "15.6 ng/mL and 48.4 ng/mL and 15.7 ng/mL and 41.4 ng/mL and 5.38 ng/mL"},
      {"measurement": "Plasma concentration of desfesoterodine, Mean", "setting": "[2]; [7]", "result": 10.096, "unit": "ng/mL"},
      {"measurement": "Plasma concentration of desfesoterodine, individual animals D2001-D2005", "setting": "[2]; [7]", "result": "12.9 ng/mL and 15.4 ng/mL and 3.93 ng/mL and 14.9 ng/mL and 3.35 ng/mL"},
      {"measurement": "Plasma concentration of desfesoterodine, Mean", "setting": "[2]; [8]", "result": 3.3175, "unit": "ng/mL"},
      {"measurement": "Plasma concentration of desfesoterodine, individual animals D2001-D2005", "setting": "[2]; [8]", "result": "4.42 ng/ml and 1.74 ng/ml and 2.96 ng/ml and 4.15 ng/ml and BQL"},
      {"measurement": "Plasma concentration of desfesoterodine, individual animals D2001-D2005", "setting": "[2]; Group 2: fesoterodine fumarate 3 mg/kg/day PO alone, Day 1, 24 h", "result": "BQL"},
      {"measurement": "Plasma concentration of desfesoterodine, individual animals D2001-D2005", "setting": "[2]; Group 2: fesoterodine fumarate 3 mg/kg/day PO alone, Day 7, 0 h", "result": "1.13 ng/ml and BQL (4×)"},
      {"measurement": "Plasma concentration of desfesoterodine, Mean", "setting": "[2]; [9]", "result": 103.4, "unit": "ng/mL"},
      {"measurement": "Plasma concentration of desfesoterodine, individual animals D2001-D2005", "setting": "[2]; [9]", "result": "15.3 ng/mL and 315 ng/mL and 121 ng/mL and 47.3 ng/mL and 18.4 ng/mL"},
      {"measurement": "Plasma concentration of desfesoterodine, Mean", "setting": "[2]; [10]", "result": 167.64, "unit": "ng/mL"},
      {"measurement": "Plasma concentration of desfesoterodine, individual animals D2001-D2005", "setting": "[2]; [10]", "result": "318 ng/mL and 274 ng/mL and 154 ng/mL and 75.6 ng/mL and 16.6 ng/mL"},
      {"measurement": "Plasma concentration of desfesoterodine, Mean", "setting": "[2]; [11]", "result": 118.7, "unit": "ng/mL"},
      {"measurement": "Plasma concentration of desfesoterodine, individual animals D2001-D2005", "setting": "[2]; [11]", "result": "173 ng/mL and 232 ng/mL and 111 ng/mL and 65.7 ng/mL and 11.8 ng/mL"},
      {"measurement": "Plasma concentration of desfesoterodine, Mean", "setting": "[2]; [12]", "result": 78.62, "unit": "ng/mL"},
      {"measurement": "Plasma concentration of desfesoterodine, individual animals D2001-D2005", "setting": "[2]; [12]", "result": "91.9 ng/mL and 145 ng/mL and 72.6 ng/mL and 57.8 ng/mL and 25.8 ng/mL"},
      {"measurement": "Plasma concentration of desfesoterodine, Mean", "setting": "[2]; [13]", "result": 45.66, "unit": "ng/mL"},
      {"measurement": "Plasma concentration of desfesoterodine, individual animals D2001-D2005", "setting": "[2]; [13]", "result": "51.4 ng/mL and 48.6 ng/mL and 44 ng/mL and 40.8 ng/mL and 43.5 ng/mL"},
      {"measurement": "Plasma concentration of desfesoterodine, Mean", "setting": "[2]; [14]", "result": 8.066, "unit": "ng/mL"},
      {"measurement": "Plasma concentration of desfesoterodine, individual animals D2001-D2005", "setting": "[2]; [14]", "result": "8.12 ng/mL and 7.08 ng/mL and 6.52 ng/mL and 13.8 ng/mL and 4.81 ng/mL"},
      {"measurement": "Plasma concentration of desfesoterodine, individual animals D2001-D2005", "setting": "[2]; Group 2: fesoterodine fumarate 3 mg/kg/day PO alone, Day 7, 24 h", "result": "BQL"},
      {"measurement": "Plasma concentration of desfesoterodine, individual animals D3001-D3005", "setting": "[2]; Group 3: Compound 1 1.5 mg/kg/day PO + fesoterodine fumarate 3 mg/kg/day PO, Day 1, 0.00 h", "result": "BQL"},
      {"measurement": "Plasma concentration of desfesoterodine, Mean", "setting": "[2]; [15]", "result": 125, "unit": "ng/mL"},
      {"measurement": "Plasma concentration of desfesoterodine, individual animals D3001-D3005", "setting": "[2]; [15]", "result": "225 ng/mL and 35.2 ng/mL and 333 ng/mL and 23.3 ng/mL and 9.33 ng/mL"}
    ]}
  ]
}
